By IC50 is commonly meant the concentration that gives 50% inhibition. The low end stands for greater potency in that assay, the high end for weaker potency in that assay.

One assay deals with MIA PaCa-2 (human). The assay can be described thus: Cytotoxicity against human MIAPaCa2 cells after 96 hrs by MTT assay. As to conditions: MIA PaCa-2, 96 h. On the technique in general: Tetrazolium dyes change colour on reduction, which living cells bring about.
The nature of assay [1]: Cytotoxicity against human foreskin fibroblasts after 96 hrs by MTT assay. As to conditions: Fibroblast. Format: cell-based.
For a further assay, the system named is MDA-MB-231 (human). The assay can be described thus: Cytotoxicity against human MDA-MB-231 cells after 96 hrs by MTT assay. As to conditions: MDA-MB-231, 96 h.

Take `CCCCNc1nc(NN)nc(N(C)O)n1`: the IC50 in the assay on MIA PaCa-2 (human) came out at 50 µM; in assay [1], 300 µM; with MDA-MB-231 (human), 75 µM.

Regarding `CCCCNc1nc(N(C)O)nc(N(C)O)n1`, the IC50 in the assay with MIA PaCa-2 (human) was determined as 0.8 µM; in assay [1] it was 16.5 µM; in the assay on MDA-MB-231 (human) it was 4 µM.

For the compound `ONc1nc(NO)nc(N2CCOCC2)n1`, the IC50 turned out to be 40 µM in the assay with MIA PaCa-2 (human), 350 µM in assay [1] and 250 µM in the assay with MDA-MB-231 (human).

With `CN(O)c1nc(N2CCOCC2)nc(N2CCC=N2)n1`, the IC50 with MIA PaCa-2 (human) was 50 µM; in assay [1], 250 µM; with MDA-MB-231 (human), 75 µM.

Take `CON(C)c1nc(N(C)O)nc(N2CCOCC2)n1`: the IC50 in the assay on MIA PaCa-2 (human) was 40 µM; in assay [1] it was 250 µM; in the assay with MDA-MB-231 (human) it was 150 µM.

For `CN(O)c1nc(NN)nc(N2CCOCC2)n1`, the half-maximal inhibitory concentration (IC50) was 150 µM in the assay with MIA PaCa-2 (human), 400 µM in assay [1] and 150 µM in the assay with MDA-MB-231 (human).

For the compound `CN(O)c1nc(N(C)O)nc(N2CCOCC2)n1`, the IC50 in the assay on MIA PaCa-2 (human) was 1 µM; in assay [1], 200 µM; in the assay on MDA-MB-231 (human), 9 µM.

In the case of `CCOC(=O)CN(C)c1nc(N(C)O)nc(N(C)O)n1`, the IC50 with MIA PaCa-2 (human) came to 4 µM; in assay [1] it was 200 µM; in the assay with MDA-MB-231 (human) it was 20 µM.

In the case of `O=C(O)c1ccc(-n2nc(-c3ccccc3O)nc2-c2ccccc2O)cc1` [DEFERASIROX], the values for the IC50 (with MIA PaCa-2 (human); in assay [1]; with MDA-MB-231 (human)) were 4 µM, 100 µM and 10 µM, respectively.

For the origin of these results see ChEMBL document CHEMBL1153235, “Synthesis and antiproliferating activity of iron chelators of hydroxyamino-1,3,5-triazine family” (Bioorg Med Chem Lett, 2010).
